Results as given in PubChem BioAssay (NCI).
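Step 1: Grow cells in 96-well plates. Step 2: Expose to compound for 48 hours at 5 concentrations. Step 3: Interpolate endpoints linearly; if unreached, use highest concentration. GI50 = concentration required for 50% inhibition of growth. TGI: total growth inhibition.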

Columns and labels:
Assay in all cases: NCI tumour cell line growth inhibition, 48 h
[1] = test system: HOP-62 NSCLC
[2] = test system: SW-620 colon
[3] = test system: CCRF-CEM leukemia
[4] = test system: COLO 205 colon
[5] = test system: RPMI-8226 leukemia
[6] = test system: SR leukemia
[7] = test system: MOLT-4 leukemia
[8] = test system: 786-0 renal
[9] = test system: A549 NSCLC
[10] = test system: SNB-19 CNS
[11] = test system: SK-MEL-28 melanoma
[12] = test system: HCT-116 colon
[13] = test system: NCI-H522 lung
[14] = test system: SNB-75 CNS
[15] = test system: UACC-62 melanoma
[16] = test system: K-562 leukemia
[17] = test system: OVCAR-4 ovarian
[18] = test system: SK-MEL-5 melanoma
[19] = test system: BT-549 breast
[20] = test system: MCF7 breast
[21] = test system: SF-268 CNS
[22] = test system: U251 CNS
[23] = test system: OVCAR-5 ovarian
[24] = test system: IGROV1 ovarian
[25] = test system: NCI-H23 lung
[26] = test system: A498 renal
[27] = test system: SF-539 CNS
[28] = test system: CAKI-1 renal
[29] = test system: TK-10 renal
[30] = test system: MALME-3M melanoma
[31] = test system: ACHN renal
[32] = test system: HCC-2998 colon
[33] = test system: T-47D breast
[34] = test system: HL-60(TB) leukemia
[35] = test system: RXF 393 renal
[36] = test system: NCI-H226 lung
[37] = test system: HS 578T breast
[38] = test system: MDA-MB-231 breast
[39] = test system: MDA-MB-435
[40] = test system: SK-OV-3 ovarian
[41] = test system: EKVX NSCLC
[42] = test system: HCT-15 colon
[43] = test system: SK-MEL-2 melanoma
[44] = test system: DU-145 prostate
[45] = test system: PC-3 prostate
[46] = test system: SN12C renal
[47] = test system: LOX IMVI melanoma
[48] = test system: NCI-H460 lung
[49] = test system: HT29 colon
[50] = test system: M14 melanoma
[51] = test system: UO-31 renal
[52] = test system: KM12 colon
[53] = test system: UACC-257 melanoma
[54] = test system: OVCAR-3 ovarian
[55] = test system: OVCAR-8 ovarian
[56] = test system: NCI/ADR-RES ovarian
[57] = test system: SF-295 CNS

SMILES: COc1ccc(CN2CCc3c(Sc4ccccc4)nc(N)nc3C2=O)c(OC)c1
- GI50 [1]: 18 µM
- TGI [1]: 73.4 µM
- GI50 [2]: 6.15 µM
- TGI [2]: 41.2 µM
- GI50 [3]: 4.53 µM
- TGI [3]: 52.9 µM
- GI50 [4]: 14.8 µM
- TGI [4]: 47.9 µM
- GI50 [5]: 1.89 µM
- TGI [5]: 7.26 µM
- GI50 [6]: 2.95 µM
- TGI [6]: 22.6 µM
- GI50 [7]: 3 µM
- TGI [7]: 16.1 µM
- GI50 [8]: 7.62 µM
- TGI [8]: > 100 µM
- GI50 [9]: 9.49 µM
- TGI [9]: 45.8 µM
- GI50 [10]: 15.4 µM
- TGI [10]: 55.3 µM
- GI50 [11]: 8.91 µM
- TGI [11]: 26.8 µM
- GI50 [12]: 3.9 µM
- TGI [12]: 36.6 µM
- GI50 [13]: 3.05 µM
- TGI [13]: 17.7 µM
- GI50 [14]: 5.58 µM
- TGI [14]: 19.7 µM
- GI50 [15]: 6.78 µM
- TGI [15]: 21.4 µM
- GI50 [16]: 4.3 µM
- TGI [16]: > 100 µM
- GI50 [17]: 4.57 µM
- TGI [17]: 18.3 µM
- GI50 [18]: 7.35 µM
- TGI [18]: 22.5 µM
- GI50 [19]: 2.3 µM
- TGI [19]: 10.1 µM
- GI50 [20]: 5.65 µM
- TGI [20]: 75.9 µM
- GI50 [21]: 6.21 µM
- TGI [21]: 26 µM
- GI50 [22]: 8.01 µM
- TGI [22]: 27.4 µM
- GI50 [23]: 39 µM
- TGI [23]: > 100 µM
- GI50 [24]: 11 µM
- TGI [24]: 28.9 µM
- GI50 [25]: 4.06 µM
- TGI [25]: 38.4 µM
- GI50 [26]: 7.22 µM
- TGI [26]: 57.7 µM
- GI50 [27]: 14.4 µM
- TGI [27]: 36.8 µM
- GI50 [28]: 3.4 µM
- TGI [28]: 18.3 µM
- GI50 [29]: 5 µM
- TGI [29]: 19.2 µM
- GI50 [30]: 1.58 µM
- TGI [30]: 8.87 µM
- GI50 [31]: 7.25 µM
- TGI [31]: 52 µM
- GI50 [32]: 14.1 µM
- TGI [32]: 30.4 µM
- GI50 [33]: 3.99 µM
- TGI [33]: 34.5 µM
- GI50 [34]: 1.56 µM
- TGI [34]: 5.32 µM
- GI50 [35]: 2.65 µM
- TGI [35]: 9.74 µM
- GI50 [36]: 8.55 µM
- TGI [36]: 27.1 µM
- GI50 [37]: 16.3 µM
- TGI [37]: > 100 µM
- GI50 [38]: 11 µM
- TGI [38]: 76.9 µM
- GI50 [39]: 3.57 µM
- TGI [39]: 16.3 µM
- GI50 [40]: 21.4 µM
- TGI [40]: 84.6 µM
- GI50 [41]: 4.32 µM
- TGI [41]: 19.9 µM
- GI50 [42]: 8.32 µM
- TGI [42]: 39.2 µM
- GI50 [43]: 10.1 µM
- TGI [43]: 32.6 µM
- GI50 [44]: 8.57 µM
- TGI [44]: 32.4 µM
- GI50 [45]: 4.41 µM
- TGI [45]: 29.1 µM
- GI50 [46]: 8.82 µM
- TGI [46]: > 100 µM
- GI50 [47]: 7.92 µM
- TGI [47]: 24.5 µM
- GI50 [48]: 9.06 µM
- TGI [48]: > 100 µM
- GI50 [49]: 7.61 µM
- TGI [49]: 23.6 µM
- GI50 [50]: 9.61 µM
- TGI [50]: 28.1 µM
- GI50 [51]: 1.45 µM
- TGI [51]: 12.8 µM
- GI50 [52]: 8.67 µM
- TGI [52]: 32.7 µM
- GI50 [53]: 5.99 µM
- TGI [53]: 22.2 µM
- GI50 [54]: 4.25 µM
- TGI [54]: 25.7 µM
- GI50 [55]: 6.23 µM
- TGI [55]: 30.5 µM
- GI50 [56]: 4.13 µM
- TGI [56]: 29.9 µM
- GI50 [57]: 8.35 µM
- TGI [57]: 22.7 µM
